From article PMC8508960, “Ruthenium Half-Sandwich Type Complexes with Bidentate Monosaccharide Ligands Show Antineoplastic Activity in Ovarian Cancer Cell Models through Reactive Oxygen Species Production” (International Journal of Molecular Sciences, 2021)
pIC50: −log10 of the molar value. Entries after “also recorded” stand apart in the source; their conditions may differ.

Legend:
ID8 cells [1] = assay: MTT reduction assay (4 h, rapid toxicity) on ID8 cells; type: cell-based; conditions: above 10 µM concentration
Procedure: (§1) Cells were cultured under standard cell culture conditions, 37 °C, 5% CO2, humidified atmosphere. A2780 cells were cultured in RMPI 1640 medium supplemented with 10% fetal calf serum, 2 mM glutamine, and 1% penicillin–streptomycin (Sigma-Aldrich). ID8 cells were cultured in high-glucose DMEM (4.5 g/L glucose) supplemented with 4% fetal calf serum, 2 mM glutamine, 1% penicillin–streptomycin (Sigma-Aldrich), and 1% ITS supplement (Sigma-Aldrich I3146). U251 cells were maintained in MEM (Sigma-Aldrich), 10% fetal bovine serum (Sigma-Aldrich), 1% penicillin/streptomycin (Invitrogene), and 2 mM glutamine. MCF7 cells were maintained in MEM (Sigma-Aldrich), 10% fetal bovine serum (Sigma-Aldrich), 1% penicillin/streptomycin (Invitrogen, Waltham, MA, USA), and 2 mM glutamine. Capan2 cells were maintained in MEM (Sigma-Aldrich), 10% fetal bovine serum (Sigma-Aldrich), 1% penicillin/streptomycin (Invitrogen), and 2 mM glutamine. Human primary dermal fibroblasts were cultured in low-glucose DMEM (1 g/L glucose) supplemented with 20% fetal calf serum, 2 mM glutamine, and 1% penicillin–streptomycin (Sigma-Aldrich).
(§2) The MTT reduction assay assesses the activity of mitochondrial complex I, and it was used to assess rapid toxicity. The MTT reduction assay was performed similarly to [67]. Cells were seeded in 96-well plates. The next day, cells were treated with the compounds for 4 h in the concentrations indicated in a cell incubator. At the end of treatment, MTT was added in 0.5 mg/mL final concentration, and cells were incubated at 37 °C in a cell incubator. Then, culture media was removed, the reduced MTT dye was resolved in dimethyl sulfoxide (DMSO), and plates were measured in a plate photometer (Thermo Scientific Multiscan GO spectrophotometer, Waltham, MA, USA) at 540 nm. On each plate, wells were designed to contain untreated/vehicle-treated cells. In calculations, the readings for these wells were considered as 1, and all readings were expressed relative to these values.

[2] = tested on: human primary skin fibroblasts; assay: SRB proliferation assay (48 h) on primary fibroblasts; type: cell-based
Procedure: as §1
(§3) The SRB accumulation assay assesses protein content in a sample, and it was used to assess cell proliferation. The SRB accumulation assay was performed similarly to [68]. Cells were seeded in 96-well plates. The next day, cells were treated with the compounds for 48 h in the concentrations indicated in a cell incubator. At the end of treatment, cells were fixed with 10% trichloroacetic acid (TCA). Fixed cells were stained with SRB (0.4% m/v dissolved in 1% acetic acid) for 60 min. Fixed cells were washed in 1% acetic acid three times; acetic acid was removed, and cells were left to dry. Protein-bound SRB was released by adding 100 µL of 10 mM Tris base. Plates were measured in a plate photometer (Thermo Scientific Multiscan GO spectrophotometer, Waltham, MA, USA) at 540 nm. On each plate, wells were designed to contain untreated cells. In calculations, the readings for these wells were considered as 1, and all readings were expressed relative to these values.
(§4) Statistical analysis was performed using Graphpad Prism version 8.0.1. Values were tested for normal distribution using the D’Agostino and Pearson normality test. When necessary, values were log-normalized or were normalized using the Box–Cox normalization method, as indicated in the figure captions. Nonlinear regression was performed using the built-in “[Inhibitor] vs. response—variable slope (four parameters), least square fit” utility of Graphpad that yielded IC50 and Hill slope values.

[3] = tested on: U251 cells (glioblastoma model); assay: SRB proliferation assay (48 h) on U251 cells; type: cell-based; conditions: nonlinear regression
Procedure: as §1, §3, §4

[4] = tested on: human primary skin fibroblasts; assay: MTT reduction assay (4 h, rapid toxicity) on primary fibroblasts; type: cell-based
Procedure: as §1, §2

A2780 cells [5] = assay: Western blotting of 4-hydroxy-nonenal (4HNE), oxidative stress marker; type: cell-based, human; conditions: concentration corresponding to IC50, 48 h
Procedure: The preparation of protein extracts, the separation of protein extracts in SDS-polyacrylamide gel electrophoresis, and the subsequent Western blotting were performed as described in [70] using the antibodies in Table 4. Enhanced chemiluminescence was developed using ChemiDoc Imager, (Bio-Rad, Hercules, CA, USA). Densitometry was performed using Image Lab Touch Software, Bio-Rad, Hercules, CA, USA).

A2780 cells [6] = assay: SRB assay on A2780 cells with antioxidant cotreatment (GSH, NAC, MitoTEMPO, vitamin E, Trolox); type: cell-based, human; conditions: 48 h
Procedure: as §3

[7] = tested on: MCF7 cells (breast cancer); assay: SRB proliferation assay (48 h) on MCF7 cells; type: cell-based; conditions: nonlinear regression
Procedure: as §1, §3, §4

A2780 cells [8] = assay: SRB assay on A2780 cells with or without 3 µM rucaparib; type: cell-based, human; conditions: 48 h, vehicle (no rucaparib)
Procedure: as §3, §4

[9] = tested on: A2780 human ovarian carcinoma cells; assay: SRB proliferation assay (48 h) on A2780 cells; type: cell-based; conditions: for cytostatic activity in long-term SRB assay (in words): A2780 cells, 100–0.0017 µM; for Hill slope (span over cell lines): SRB curves, A2780 and ID8 cells; for A2780 Hill Slope / pIC50: SRB, nonlinear regression, N/A = could not be calculated/had no effect
Procedure: as §1, §3, §4

A2780 cells [10] = assay: Annexin V-FITC, PI double staining (flow cytometry); type: cell-based, human; conditions: concentration corresponding to IC50, 2 h, 4 h or 48 h
Procedure: Annexin V–PI double staining was applied to assess apoptotic and necrotic cell death similar to [37, 38, 69]. A2780 cells were treated with the indicated compounds at the concentration corresponding to their IC50 value for 2, 4, and 48 h. The 4 and 48 h time points correspond to the time points for the MTT and SRB assays, while the 2 h time point reflects the optimum time point for the detection of apoptotic or necrotic cell death. Quadrants were set on the basis of the FITC and PI values observed for the vehicle-treated cells.

ID8 cells [11] = assay: SRB proliferation assay (48 h) on ID8 cells; type: cell-based; conditions: for cytostatic activity in long-term SRB assay (in words): ID8 cells; for pIC50 / ID8 Hill Slope: SRB, nonlinear regression, N/A = could not be calculated/had no effect
Procedure: as §1, §3, §4

[12] = Determination of the distribution coefficients (logD), n-octanol/PBS; type: physicochemical; conditions: n-octanol / PBS pH = 7.40
Procedure: Prior to the experiments, n-octanol was saturated with aqueous PBS solution (pH = 7.40) and vice versa. The corresponding complex (approximately 0.2–0.3 mg) was dissolved in a mixture of 2.50 mL of pre-saturated n-octanol and 2.50 mL of pre-saturated PBS buffer, and the mixture was vigorously stirred for 3 days. According to the NMR stability measurements, this time was necessary to reach equilibrium between the various ionic complex species. Due to the lipophilic/hydrophilic character of the complexes, those with benzoyl protection or the non-sugar derivative could mostly be found in the n-octanol, while the acetyl and non-protected complexes could be found in the aqueous PBS phase. The appropriate separated solution was centrifuged (ScanSpeed 406G instrument, 4000 RPM for 5 min), and the absorption of the “stock solution” was measured (VWR UV-1600PC Spectrophotometer, 270–420 nm). Then 2.00 mL of stock solution was stirred vigorously with 16.00 mL of pre-saturated, clean n-octanol or PBS solution. After 1 day, the phases were separated and centrifuged, and the absorption of the solution was measured again. From the absorption difference of the stock solutions, the distribution coefficient (D) was calculated according to the previously described formulae [66].

[13] = tested on: Capan2 (pancreatic adenocarcinoma); assay: SRB proliferation assay (48 h) on Capan2 cells; type: cell-based; conditions: nonlinear regression
Procedure: as §1, §3, §4

[14] = tested on: A2780 human ovarian carcinoma cells; assay: MTT reduction assay (4 h, rapid toxicity) on A2780 cells; type: cell-based
Procedure: as §1, §2

SMILES | pIC50 [3] | U251 Hill Slope [3] | effect in short-term MTT assay, rapid toxicity (in words) [4] | expression of oxidative stress marker 4-hydroxy-nonenal (4HNE) (A2780 cells [5]) | effect of GSH and NAC cotreatment on the cytostatic effects of the complex (A2780 cells [6]) | effect of MitoTEMPO on the cytostatic effects of the complex (A2780 cells [6]) | pIC50 [7] | MCF7 Hill Slope [7] | pIC50 (A2780 cells [8]) | cytostatic activity in long-term SRB assay (in words) [9] | Hill slope (span over cell lines) [9] | A2780 Hill Slope [9] | pIC50 [9] | proportions of PI-positive, annexin V-positive and double-positive cells (A2780 cells [10]) | cytostatic activity in long-term SRB assay (in words) (ID8 cells [11]) | pIC50 (ID8 cells [11]) | ID8 Hill Slope (ID8 cells [11]) | logD [12] | Capan2 Hill Slope [13] | pIC50 [13] | other results
Cc1ccc(C(C)C)cc1.F[P-](F)(F)(F)(F)F.O=C(OCC1OC(n2cc(-c3ccccn3)nn2)C(OC(=O)c2ccccc2)C(OC(=O)c2ccccc2)C1OC(=O)c1ccccc1)c1ccccc1.[Cl][Ru+] (mixture of isomers) [Ru-2a] | 5.55 | 1.75 | no effect | increase in the expression | attenuated the cytostatic effects | did not modulate the effects | 5.89 | 1.85 | 5.86 | cytostatic properties | 2–3 | 1.95 | 6.05 | did not largely increase | cytostatic | 5.82 | 2.50 | 2.85 | 2.43 | 5.66 | effect on MTT signal above 10 µM (ID8 cells [1]): reduced the MTT signal; Fibroblast Hill Slope ([2]; SRB, nonlinear regression, N/A = could not be calculated/had no effect): 0.78; effect on SRB signal at 100 µM ([2]; primary human fibroblasts, 100 µM): reduced the SRB signal; effect in short-term MTT assay, rapid toxicity (in words) [14]: cytostatic properties; effect on MTT signal above 10 µM ([14]; above 10 µM concentration): reduced the MTT signal
Cc1ccc(C(C)C)cc1.F[P-](F)(F)(F)(F)F.O=C(OCC1OC(c2n[n+]3c(o2)-c2cccc[n+]2[Ru-]3[Cl])C(OC(=O)c2ccccc2)C(OC(=O)c2ccccc2)C1OC(=O)c1ccccc1)c1ccccc1 (mixture of isomers) [Ru-4] | 5.38 | 2.46 | no effect | increase in the expression | attenuated the cytostatic effects | did not modulate the effects | 5.43 | 2.01 | 5.21 | cytostatic properties | 2–3 | 2.62 | 5.21 | did not largely increase | cytostatic | 5.25 | 3.04 | 2.41 | 1.81 | 5.49 | effect in long-term SRB assay (in words) ([2]; primary human fibroblasts): no effect; also recorded: no activity; effect in short-term MTT assay, rapid toxicity (in words) [14]: cytostatic properties
